The test system of the experiment is Spodoptera frugiperda. The experiment can be described thus: Spodoptera frugiperda test (SPODFR), spray treatment of maize plants. Format: in vivo. The following applies: 168 h, read-out: Mortality/% 7 d. The procedure: Spodoptera frugiperda—Test (SPODFR)
For the preparation of an expedient active ingredient preparation, 1 part by weight of active ingredient is mixed with the stated amounts of solvent and emulsifier, and the concentrate is diluted with emulsifier-containing water to the desired concentration. If it is necessary to add ammonium salts or ammonium salts and penetration promoter, the corresponding amount is pipetted into each of the ready preparation solution after the dilution.
Maize plants (Zea mais) are treated with the active ingredient preparation in the desired concentration by spraying and are populated with caterpillars of the fall armyworm (Spodoptera frugiperda) as long as the leaves are still moist.
After the desired time, the kill in % is determined. 100% means that all caterpillars were killed; 0% means that no caterpillars were killed.

The structures appear in SMILES notation.

For the molecule `Cc1cc(C(F)(C(F)(F)F)C(F)(F)F)ccc1NC(=O)c1cccc(Cl)c1C(=O)N[C@@H](C)CS(C)(=O)=O` [(Ib)], the mortality at 0.192 g/ha worked out at 70%.

For the origin of these results see patent publication US20090093544A1, “INSECTICIDAL COMPOSITIONS HAVING IMPROVED EFFECT” (Bayer CropScience AG, priority 2005, published 2009).
